{"source": "patent US11535599B2", "about": "“Benzisoxazole derivative” (Sumitomo Pharma Co., Ltd., priority 2020, dated 2022)", "key": {"mouse elevated plus maze": {"test_system": "mouse elevated plus maze", "assay": "Anxiolytic-like action, mouse elevated plus maze", "format": "in vivo", "conditions": "Example 13 at 10 mg/kg or more oral; diazepam 3 mg/kg oral", "experimental": "In Parkinson's disease, psychiatric symptom (e.g. depression, anxiety) is known as one of its non-motor symptoms. The anxiolytic-like action of the present invention was evaluated with mouse elevated plus maze. The present test is broadly used as a method for evaluating the anxiolytic-like action of agents.\nIn the present test, male Crl: CD1 (ICR) mice (CHARLES RIVER LABORATORIES JAPAN, INC.) were used. One hour before the test was started, the solvent, the compound of Example 13 (3 mg/kg, 10 mg/kg, 30 mg/kg, or 100 mg/kg), or diazepam (3 mg/kg) which is a positive control was orally administered to the mouse. The mouse was put into a center platform in which the illuminance was adjusted to 80-100 Lux level. The head of the mouse was set toward the closed arm, and then the test was started. The mouse was allowed to explore freely for 5 minutes. When ⅓ of the mouse's body entered the arm, the behavior was counted as arm entry. And, the time spent in the open arm was also measured with a stopwatch. The ratio of the count of the open arm entry per the count of the all arm entry, and the ratio of the time spent in the open arm per the total exploration time (5 minutes) were calculated. […] Thus, the ratio of the count of the open arm entry per the count of the all arm entry, and the ratio of the time spent in the open arm per the total exploration time tend to be small values. When these ratios in the drug administration group are higher than those of the solvent administration group, it can be judged that the drug has anxiolytic-like action."}, "[1]": {"test_system": "harmaline-induced essential tremor model", "assay": "Anti-tremor effect in harmaline-induced essential tremor model", "format": "in vivo, mouse", "conditions": "Examples 1, 13: 25 or 50 mg/kg, Example 14: 3.125-25 mg/kg oral; β-propranolol 10 mg/kg i.p.", "experimental": "As an animal model of essential tremor, an animal administrated with harmaline is broadly used in its evaluation test. […] The effect of the present compounds for harmaline-acute-administration-induced tremor was studied. To male Crl: CD1 mice (6-7 weeks old) (CHARLES RIVER LABORATORIES JAPAN, INC.), harmaline (30 mg/kg) was intraperitoneally administered to induce tremor. The present compound (Example 1 (25 mg/kg or 50 mg/kg), Example 13 (25 mg/kg or 50 mg/kg), or Example 14 (3.125 mg/kg, 6.25 mg/kg, 12.5 mg/kg, or 25 mg/kg)) was orally administered to the mouse one hour before the administration of harmaline. And, saline or β-propranolol (10 mg/kg) which is a positive control compound was intraperitoneally administered to the mouse 20 minutes before the administration of harmaline. 35 minutes before the administration of harmaline, the mouse was put into a measurement cage (an acrylic cylinder set in a horizontal direction, φ 65 mm, length 145 mm), one cage to one mouse, said measurement cage was in a soundproof box of a startle response instrument (O'hara & Co., Ltd., Tokyo). The trembling that the mouse gave were recorded over time as tremor data. The animal was put into cage, and the data were recorded for 20 minutes just before (PRE) and just after (POST) the administration of harmaline. The time-series signal data were analyzed about frequency with an analysis software, VitalTracer and BIMUTAS II-A (both, Kissei Comtech Co., Ltd., Matsumoto-shi). At 12-15 Hz or 12-18 Hz as a frequency which increases with tremor, the spectrum amounts were extracted, and the tremor intensity T of each subject was calculated according to the following formula. T=POST/PRE"}, "human Cav3.1": {"molecular_target": "human Cav3.1 (Homo sapiens (Human), UniProt O43497)", "assay": "T-type calcium channel inhibitory activity, whole-cell patch-clamp with HEK293 cell", "format": "cell-based", "experimental": "(§1) The inhibitory activity of the present compounds for T-type calcium channel was measured by whole-cell patch-clamp method with HEK293 cell (vendor of HEK 293 cell: ATCC, Manassas, Va., USA, builder of expressing cell: ChanTest Corporation., Cleveland, Ohio, USA), in which human Cav3.1, human Cav3.2, or human Cav3.3 is expressed. The culture medium used for HEK293 cell was prepared by adding fetal bovine serum (10%), sodium penicillin G (100 U/mL), streptomycin sulfate (100 μg/mL), and G418 (500 μg/mL) to a mixture medium of Dulbecco's modified Eagle's medium/Ham's F-12 medium. The whole-cell current was evaluated with IonWorks Barracuda system and Population Patch Clamp (both are provided by Molecular Device Corporation, Union City, Calif., USA). The extracellular recording solution used during the recording was Hanks' balanced salt solution. The internal recording solution used herein was 50 mmol/L CsCl, 90 mmol/L CsF, 5 mmol/L MgCl2, 1 mmol/L glycol ether diamine tetraacetic acid (EGTA), and 10 mmol/L 4-(2-hydroxyethyl)piperazine-1-ethanesulfonic acid (HEPES (pH 7.2). The holding voltage was held at −90 mV, then changed to −65 mV. 60 seconds later, −20 mV pulse was added thereto for 200 millisecond to activate the channel on plasma membrane and generate calcium current. The calcium current was recorded with an amplifier of IonWorks Barracuda system, and analyzed with a program of the system (Version 2.0.2). The record of the calcium current was obtained twice, before and after the addition of the compound. In the measurement after adding the compound, the cells were exposed to the recording solution containing the compound for more than 5 minutes and then the current was measured. In the analyses, the ratio of current readout after the compound addition per current readout before the compound addition was calculated, the calculated value was subtracted from one, and the obtained value was converted to percentage. […] The value obtained from each compound was canonicalized based on the two ends of values to obtain each inhibitory rate. The positive control compound used herein was TTA-A2 which is known as T-type calcium channel inhibitor. IC50 value was calculated with Hill equation.\n(§2) Each inhibitory rate (%) against T-type calcium channel at the evaluation concentration of the present compound (600 μmol/L) is shown in Table 12, in which the parenthesized values are IC50 values (μmol/L)) calculated from the dose-reactive test."}, "human Cav3.2": {"molecular_target": "human Cav3.2 (Homo sapiens (Human), UniProt O95180)", "sequence (O95180 whole entry)": "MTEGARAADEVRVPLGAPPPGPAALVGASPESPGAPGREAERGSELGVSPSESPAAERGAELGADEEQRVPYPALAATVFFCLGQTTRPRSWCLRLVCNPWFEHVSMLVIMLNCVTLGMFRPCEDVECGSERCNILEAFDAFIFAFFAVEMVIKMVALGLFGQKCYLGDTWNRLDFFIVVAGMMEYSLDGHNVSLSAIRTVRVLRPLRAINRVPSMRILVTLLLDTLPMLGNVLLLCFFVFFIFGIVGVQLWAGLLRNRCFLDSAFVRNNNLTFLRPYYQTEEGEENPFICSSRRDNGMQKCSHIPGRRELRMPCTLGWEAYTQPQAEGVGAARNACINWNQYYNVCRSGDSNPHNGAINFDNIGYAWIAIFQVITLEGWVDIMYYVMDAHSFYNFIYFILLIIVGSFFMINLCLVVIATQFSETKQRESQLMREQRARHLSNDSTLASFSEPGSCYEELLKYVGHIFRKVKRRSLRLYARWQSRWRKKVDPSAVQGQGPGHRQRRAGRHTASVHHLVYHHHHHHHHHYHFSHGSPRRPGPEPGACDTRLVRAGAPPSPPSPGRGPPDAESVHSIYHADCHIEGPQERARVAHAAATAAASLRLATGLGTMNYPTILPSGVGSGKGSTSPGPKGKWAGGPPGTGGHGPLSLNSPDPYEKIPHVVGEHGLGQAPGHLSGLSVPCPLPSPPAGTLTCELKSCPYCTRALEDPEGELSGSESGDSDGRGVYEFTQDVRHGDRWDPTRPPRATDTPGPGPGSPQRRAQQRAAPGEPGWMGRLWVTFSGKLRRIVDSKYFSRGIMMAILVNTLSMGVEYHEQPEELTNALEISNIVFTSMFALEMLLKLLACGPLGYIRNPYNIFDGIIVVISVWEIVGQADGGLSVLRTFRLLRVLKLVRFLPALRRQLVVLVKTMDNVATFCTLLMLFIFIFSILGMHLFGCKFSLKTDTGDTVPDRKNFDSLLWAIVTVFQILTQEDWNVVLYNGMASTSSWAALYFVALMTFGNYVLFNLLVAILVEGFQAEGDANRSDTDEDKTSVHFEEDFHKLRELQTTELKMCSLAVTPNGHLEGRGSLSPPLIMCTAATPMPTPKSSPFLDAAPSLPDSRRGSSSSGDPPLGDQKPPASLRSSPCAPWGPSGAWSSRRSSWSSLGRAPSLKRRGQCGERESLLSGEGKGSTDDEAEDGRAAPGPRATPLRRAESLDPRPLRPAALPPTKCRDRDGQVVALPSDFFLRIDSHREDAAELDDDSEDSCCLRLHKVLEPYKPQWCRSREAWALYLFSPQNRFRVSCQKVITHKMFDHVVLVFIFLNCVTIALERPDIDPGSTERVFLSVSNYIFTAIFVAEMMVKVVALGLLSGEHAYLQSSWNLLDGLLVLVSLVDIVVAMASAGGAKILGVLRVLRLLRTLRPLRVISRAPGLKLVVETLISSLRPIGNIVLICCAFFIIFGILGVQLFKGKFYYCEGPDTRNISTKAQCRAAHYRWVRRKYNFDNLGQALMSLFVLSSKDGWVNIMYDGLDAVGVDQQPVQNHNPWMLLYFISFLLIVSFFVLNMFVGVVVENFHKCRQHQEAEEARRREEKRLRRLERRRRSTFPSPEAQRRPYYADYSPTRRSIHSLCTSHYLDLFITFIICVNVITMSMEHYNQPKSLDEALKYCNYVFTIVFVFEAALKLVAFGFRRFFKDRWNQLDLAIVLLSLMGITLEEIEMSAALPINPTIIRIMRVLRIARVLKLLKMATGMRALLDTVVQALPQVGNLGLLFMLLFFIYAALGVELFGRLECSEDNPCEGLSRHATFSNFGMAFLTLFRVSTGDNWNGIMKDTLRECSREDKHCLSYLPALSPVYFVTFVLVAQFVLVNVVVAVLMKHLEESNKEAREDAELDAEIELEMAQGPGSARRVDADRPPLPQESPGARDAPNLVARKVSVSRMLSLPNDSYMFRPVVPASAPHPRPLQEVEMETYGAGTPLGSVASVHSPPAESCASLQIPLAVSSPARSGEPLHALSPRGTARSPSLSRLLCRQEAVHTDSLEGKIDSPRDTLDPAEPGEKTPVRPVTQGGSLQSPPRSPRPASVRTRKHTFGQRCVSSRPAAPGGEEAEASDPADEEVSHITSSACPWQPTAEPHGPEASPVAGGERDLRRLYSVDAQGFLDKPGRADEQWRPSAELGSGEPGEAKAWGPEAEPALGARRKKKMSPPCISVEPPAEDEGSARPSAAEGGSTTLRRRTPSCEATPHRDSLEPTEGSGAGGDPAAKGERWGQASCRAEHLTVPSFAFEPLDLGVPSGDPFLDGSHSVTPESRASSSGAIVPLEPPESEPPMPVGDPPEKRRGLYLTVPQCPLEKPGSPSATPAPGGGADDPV", "assay": "T-type calcium channel inhibitory activity, whole-cell patch-clamp with HEK293 cell", "format": "cell-based", "experimental": "as §1, §2"}, "human Cav3.3": {"molecular_target": "human Cav3.3 (Homo sapiens (Human), UniProt Q9P0X4)", "sequence (Q9P0X4 whole entry)": "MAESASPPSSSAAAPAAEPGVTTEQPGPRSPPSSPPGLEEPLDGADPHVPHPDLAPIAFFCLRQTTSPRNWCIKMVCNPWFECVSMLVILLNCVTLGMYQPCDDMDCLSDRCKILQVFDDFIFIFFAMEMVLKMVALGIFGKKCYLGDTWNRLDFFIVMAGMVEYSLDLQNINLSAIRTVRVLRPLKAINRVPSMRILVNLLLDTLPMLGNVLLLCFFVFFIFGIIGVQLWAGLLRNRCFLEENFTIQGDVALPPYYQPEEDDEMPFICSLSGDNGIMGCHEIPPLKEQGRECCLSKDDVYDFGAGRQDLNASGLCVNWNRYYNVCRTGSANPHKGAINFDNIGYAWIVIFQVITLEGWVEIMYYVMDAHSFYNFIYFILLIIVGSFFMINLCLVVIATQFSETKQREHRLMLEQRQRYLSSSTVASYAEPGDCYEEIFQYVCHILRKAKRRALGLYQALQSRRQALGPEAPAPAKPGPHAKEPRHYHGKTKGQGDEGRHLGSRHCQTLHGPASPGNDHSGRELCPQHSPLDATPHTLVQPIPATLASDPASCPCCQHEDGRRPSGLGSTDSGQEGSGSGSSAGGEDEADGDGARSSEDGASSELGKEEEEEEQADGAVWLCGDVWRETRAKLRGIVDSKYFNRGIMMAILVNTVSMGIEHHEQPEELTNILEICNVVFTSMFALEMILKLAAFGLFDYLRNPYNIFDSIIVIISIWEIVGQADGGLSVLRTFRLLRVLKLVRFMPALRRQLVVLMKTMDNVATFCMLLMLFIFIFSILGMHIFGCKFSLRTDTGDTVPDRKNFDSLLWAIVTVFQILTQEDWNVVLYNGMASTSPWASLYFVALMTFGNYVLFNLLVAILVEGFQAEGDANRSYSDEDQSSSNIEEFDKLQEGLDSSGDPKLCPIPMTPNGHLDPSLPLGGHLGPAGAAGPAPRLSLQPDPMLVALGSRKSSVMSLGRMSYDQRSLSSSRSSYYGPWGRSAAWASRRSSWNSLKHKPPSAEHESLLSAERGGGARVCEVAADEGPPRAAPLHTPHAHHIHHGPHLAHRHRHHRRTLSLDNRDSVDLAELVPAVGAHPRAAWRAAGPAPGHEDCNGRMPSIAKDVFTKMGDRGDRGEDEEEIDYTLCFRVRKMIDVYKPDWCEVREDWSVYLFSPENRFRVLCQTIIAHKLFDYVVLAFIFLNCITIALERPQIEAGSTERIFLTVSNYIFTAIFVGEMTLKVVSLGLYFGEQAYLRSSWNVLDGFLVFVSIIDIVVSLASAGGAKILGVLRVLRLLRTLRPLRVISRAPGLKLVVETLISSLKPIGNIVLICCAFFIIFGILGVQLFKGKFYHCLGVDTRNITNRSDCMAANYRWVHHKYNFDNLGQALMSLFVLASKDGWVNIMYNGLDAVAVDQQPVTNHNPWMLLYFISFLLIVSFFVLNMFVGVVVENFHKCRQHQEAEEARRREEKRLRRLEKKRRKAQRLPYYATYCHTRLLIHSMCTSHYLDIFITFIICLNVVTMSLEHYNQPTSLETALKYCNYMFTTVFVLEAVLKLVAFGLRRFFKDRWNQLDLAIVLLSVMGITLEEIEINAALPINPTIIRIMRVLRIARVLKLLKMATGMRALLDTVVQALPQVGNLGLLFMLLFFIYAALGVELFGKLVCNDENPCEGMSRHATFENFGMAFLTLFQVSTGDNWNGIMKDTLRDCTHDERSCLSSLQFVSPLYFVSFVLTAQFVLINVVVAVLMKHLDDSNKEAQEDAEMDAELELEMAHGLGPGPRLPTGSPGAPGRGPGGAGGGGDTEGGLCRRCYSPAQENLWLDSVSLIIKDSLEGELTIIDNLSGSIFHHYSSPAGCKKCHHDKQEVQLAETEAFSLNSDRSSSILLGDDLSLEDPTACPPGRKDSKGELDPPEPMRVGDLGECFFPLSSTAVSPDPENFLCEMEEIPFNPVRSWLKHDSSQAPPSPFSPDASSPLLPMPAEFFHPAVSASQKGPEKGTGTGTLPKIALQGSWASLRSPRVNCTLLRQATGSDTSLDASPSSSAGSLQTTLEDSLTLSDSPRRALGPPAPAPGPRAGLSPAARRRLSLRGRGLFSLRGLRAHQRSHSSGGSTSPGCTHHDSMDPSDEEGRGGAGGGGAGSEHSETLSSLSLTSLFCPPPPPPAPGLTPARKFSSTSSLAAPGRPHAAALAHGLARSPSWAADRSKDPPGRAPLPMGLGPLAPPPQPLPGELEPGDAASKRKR", "assay": "T-type calcium channel inhibitory activity, whole-cell patch-clamp with HEK293 cell", "format": "cell-based", "experimental": "as §1, §2"}, "Rat striatum MAOB": {"molecular_target": "Rat striatum MAOB (Rattus norvegicus (Rat), UniProt P19643)", "sequence (P19643 whole entry)": "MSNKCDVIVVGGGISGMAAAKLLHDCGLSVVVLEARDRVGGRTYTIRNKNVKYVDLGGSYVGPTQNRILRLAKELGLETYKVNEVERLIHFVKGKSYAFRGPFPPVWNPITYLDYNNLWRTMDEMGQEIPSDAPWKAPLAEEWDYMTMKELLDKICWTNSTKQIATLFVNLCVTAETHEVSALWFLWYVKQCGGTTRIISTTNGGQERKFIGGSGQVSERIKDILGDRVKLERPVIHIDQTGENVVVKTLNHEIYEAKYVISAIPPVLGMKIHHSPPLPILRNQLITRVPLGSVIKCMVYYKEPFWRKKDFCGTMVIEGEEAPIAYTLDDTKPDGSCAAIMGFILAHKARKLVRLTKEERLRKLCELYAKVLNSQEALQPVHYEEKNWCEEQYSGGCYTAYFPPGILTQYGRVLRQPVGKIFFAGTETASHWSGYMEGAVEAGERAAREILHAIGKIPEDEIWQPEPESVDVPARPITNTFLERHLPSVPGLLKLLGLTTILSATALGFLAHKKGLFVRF", "assay": "Activity for inhibiting monoamine oxidase B (MAOB)", "format": "biochemical", "conditions": "[14C] β-PEA substrate; read-out: Rat striatum MAOB IC50", "experimental": "MAOB is an enzyme involved in oxidative de-amino acid reaction of an endogenous monoamine neurotransmitter such as dopamine. […] The effect of the present compounds for inhibiting MAOB in rat striatum and simian striatum was tested.\nMitochondria⋅synaptosome fraction containing MAOB was prepared according to the following procedure. To striata of male Slc: Wistar rat (Japan SLC, Inc.) or male cynomolgus monkey (HAMRI CO., LTD.) was added 0.32 mol/L aqueous sucrose by 10 mL per 1 gram as wet weight of the tissue, and the mixture was homogenized. The homogenate was centrifuged at 4° C. at 1,000 g for 10 minutes, and the obtained supernatant was centrifuged again at 4° C. at 17,200 g for 20 minutes. To the obtained precipitate was added a prepared buffer solution (10 mmol/L Tris-HCl buffer solution (pH 7.4), 0.25 mol/L aqueous sucrose, 0.5 mmol/L EDTA-2K) by 10 mL per 1 gram as wet weight of the original tissue, and the mixture was centrifuged again at 4° C. at 17,200 g for 20 minutes. To the obtained precipitate was added the prepared buffer solution by 40 mL per 1 gram as wet weight of the original tissue. The mixture was suspended to be used as an enzyme homogenate solution.\nAs a substance to be degraded by MAOB, ^14C-labeled β-phenylethylamine ([^14C] β-PEA) was used. [^14C] β-PEA and the present compound solution diluted to each concentration were incubated with the enzyme homogenate solution at 37° C. for a given period, and then the reaction was stopped by adding 3 mol/L cold HCl thereto. The reaction product was extracted with a mixture of water-saturated toluene and ethyl acetate (1:1). The supernatant organic layer was separated, a liquid scintillation cocktail (ACSII, GE Healthcare) was added to the separated organic layer, and the radioactivity was measured with a liquid scintillation counter (TRI-CARB 3100TR, Packard). The IC50 value of each compound was determined based on two parameter logistic model with the inhibitory data of each concentration, said data were obtained from plural trials."}, "human CA-II": {"molecular_target": "human CA-II (Homo sapiens (Human), UniProt P00918)", "assay": "Activity for inhibiting carbonic anhydrase (CA)", "format": "biochemical", "conditions": "4-nitrophenyl acetate substrate", "experimental": "CA is a zinc metalloenzyme family which catalyzes reversible hydration between carbon dioxide, and bicarbonate and proton.\nAs a substance for decomposition by CA-II, 4-nitrophenyl acetate was used herein. 4-Nitrophenyl acetate is […] with CA-II to produce 4-nitrophenol. […] To the diluted solution were added […] (final concentration: 5 mmol/L) and the present compound of each concentration, and the mixture was incubated at 37° C. under shading for 30 minutes. […] The IC50 of the compound was obtained through the two-parameter logistic model with the inhibitory rate data in each concentration which was obtained from plural trials."}, "[2]": {"test_system": "unilateral lesion model of nigrostriatal dopamine neuron induced with 6-OHDA", "assay": "Extending duration of levodopa-induced rotational behavior in 6-OHDA unilateral lesion model", "format": "in vivo, rat", "conditions": "Examples 10 or 30 mg/kg oral; rasagiline 0.6 mg/kg; with levodopa 5 mg/kg i.p."}, "[3]": {"test_system": "levodopa-induced dyskinesia in 6-OHDA unilateral lesion model", "assay": "Effect for inhibiting levodopa-induced dyskinesia", "format": "in vivo, rat", "conditions": "Examples 30 or 100 mg/kg, rasagiline 0.2 or 0.6 mg/kg, daily for two weeks", "description": "A unilateral lesion model of nigrostriatal dopamine neuron induced with 6-hydroxydopamine (6-OHDA) is broadly used for evaluating the drug efficacy for treating Parkinson's disease, as mentioned in Test 2. In addition, it is known that dyskinesia is developed when the present model receives repetitive administration of levodopa, which is similar to the phenomenon that patients of Parkinson's disease who have received long-term administration of levodopa develop dyskinesia. With the present model, the effect of the present compound on the dyskinesia induced by repetitive administration of levodopa was evaluated. As shown in Test 2, a unilateral lesion model of nigrostriatal dopamine neuron was prepared. One day before starting the repetitive administration of levodopa, levodopa methyl ester hydrochloride (5.86 mg/kg) containing benserazide hydrochloride ([…]) (whose ratio was 4:1 in terms of free form) was intraperitoneally administered to the model, and the rotational behavior of the model was observed from 20 minutes to 140 minutes after the administration. The models were classified considering three factors of the total rotation number (20-140 minutes after the administration), the later term of the rotation (120-140 minutes after the administration), and the rotational duration, so that the dispersion of each group could be equal. Two days after the classification, the repetitive administration of levodopa methyl ester hydrochloride (6 mg/kg) and benserazide hydrochloride (12 mg/kg) once a day for two weeks was started. […] The evaluation of dyskinesia was done after one week and two weeks of the repetitive administration. […]"}, "[4]": {"test_system": "reserpine-induced Parkinson's disease model mouse", "assay": "Potentiating effect of levodopa-induced hyperactivity in reserpine-induced Parkinson's disease model mouse", "format": "in vivo", "conditions": "Examples 12.5 or 25 mg/kg oral; rasagiline 3 or 10 mg/kg; with levodopa 200 mg/kg i.p.", "experimental": "Dopamine-depleted mice due to reserpine treatment are model mice of akinesia symptoms in Parkinson's disease, said symptoms are relieved with levodopa (L-DOPA). The effect of the present compounds for potentiating the levodopa's effect was tested.\nIn the present test, male Crl: CD1 (ICR) mice (CHARLES RIVER LABORATORIES JAPAN, INC.) were used. 20-24 hours before starting the movement measurement, reserpine (3 mg/kg) was intraperitoneally administered to the mouse. One hour before starting the movement measurement, the present compound (12-.5 mg/kg or 25 mg/kg of. Examples 1, 2, 3, 4, and 5) was orally administered to the mouse. Shortly before starting the movement measurement, levodopa (200 mg/kg) with benserazide whose amount was ¼ of levodopa in free form was intraperitoneally administered to the mouse. The movement measurement was carried out for 90 minutes, and each total movement was compared."}}, "note": "pIC50: −log10 of the molar value."}
{"molecule": "CN1C(=O)CN=C(c2ccccc2)c2cc(Cl)ccc21", "note": "[Diazepam, diazepam, reference compound]", "values": [{"measurement": "count of the open arm entry", "setting": "mouse elevated plus maze", "result": "increase significantly"}, {"measurement": "time spent in the open arm", "setting": "mouse elevated plus maze", "result": "increase significantly"}]}
{"molecule": "C[C@@H](c1noc2ccccc12)S(N)(=O)=O", "note": "[Example 14, (1S)-1-(1,2-benzoxazol-3-yl)ethane-1-sulfonamide]", "values": [{"measurement": "harmaline-induced tremor intensity", "setting": "[1]", "result": "inhibited harmaline-induced tremor"}, {"measurement": "inhibition at 600 µM", "setting": "human Cav3.1; HEK293, 600 μmol/L, read-out: Cav3.1 % inhibitory rate", "result": 49.6, "unit": "%"}, {"measurement": "pIC50", "setting": "human Cav3.1; dose-reactive test, read-out: Cav3.1 IC50 (parenthesized)", "result": 3.26}, {"measurement": "inhibition at 600 µM", "setting": "human Cav3.2; HEK293, 600 μmol/L, read-out: Cav3.2 % inhibitory rate", "result": 33.8, "unit": "%"}, {"measurement": "pIC50", "setting": "human Cav3.2; dose-reactive test, read-out: Cav3.2 IC50 (parenthesized)", "result": 3.08}, {"measurement": "inhibition at 600 µM", "setting": "human Cav3.3; HEK293, 600 μmol/L, read-out: Cav3.3 % inhibitory rate", "result": 31.8, "unit": "%"}, {"measurement": "pIC50", "setting": "human Cav3.3; dose-reactive test, read-out: Cav3.3 IC50 (parenthesized)", "result": 3.05}, {"measurement": "pIC50", "setting": "Rat striatum MAOB", "result": "< 3.22"}, {"measurement": "pIC50", "setting": "human CA-II", "result": 5.46}, {"measurement": "rotational number in the late phase (100-120 minutes)", "setting": "[2]", "result": "significantly increased the rotational number in the late phase"}]}
{"molecule": "C#CCN[C@@H]1CCc2ccccc21", "note": "[rasagiline, reference compound]", "values": [{"measurement": "dyskinesia induced by repetitive administration of levodopa (AIMS score)", "setting": "[3]", "result": "significantly got worse"}, {"measurement": "levodopa-induced hyperactivity (total movement, 90 minutes)", "setting": "[4]", "result": "a tendency to increase the movement, but the increase had no statistically-significant difference"}, {"measurement": "rotational number in the late phase (100-120 minutes)", "setting": "[2]", "result": "significantly increased the rotational number in the late phase"}]}
{"molecule": "CC(C)NCC(O)COc1cccc2ccccc12", "note": "(stereo not drawn) [β-Propranolol, β-propranolol, reference compound]", "values": [{"measurement": "harmaline-induced tremor intensity", "setting": "[1]", "result": "significantly inhibited harmaline-induced tremor"}]}
